For data set [1], the system named is human hepatocarcinoma cell line Hep3B. As to the kind of experiment: In-vitro erythropoietin (EPO)-inducing activity experiment (EPO ELISA, OD450). In kind it is cell-based. Particulars: Homo sapiens, Hep3B cells, incubated 24 hours at 37°C. The method, then: In-vitro erythropoietin (EPO)-inducing activities of the compounds in Embodiments 10 to 12 were evaluated by using a human hepatocarcinoma cell line Hep3B (ATCC). Hep3B cells were cultured in an EMEM medium (Eagle's Minimum Essential Medium) at 37°C in the presence of 10% fetal bovine serum (FBS). Experimental steps were as follows: • (1) Cell preparation: the cells were inoculated in a 96-well plate, and cell plating was carried out according to an amount of 100 µL per well based on 2*10~4 per well. • (2) Preparation of compound concentration gradient: 100 µM, 20 µM, 2-parallel well detection. A solution with 200 times final concentration was prepared in a 96-well plate, the compound was diluted 200/3 times by using a cell culture medium, and then 50 µL of the compound was sucked for drug administration to the cells. 50 µL of DMSO-containing culture solution was added into a negative control well to make a final concentration contain 5 ‰ DMSO, and 50 µL of positive compound with the highest concentration was added into a positive control well to incubate the cells at 37°C for 24 hours. • (3) The reaction plate was washed twice with 1X Wash Buffer according to about 400 µL per well. • (4) 100 µL of diluted standard (comprising a standard blank control) was added into an appropriate well. • (5) 50 µL of sample and 50 µL of Sample Diluent were added into a sample well. • (6) 50 µL of 1X Biotin Conjugated Antibody were added into all wells to incubate the cells at room temperature for 1 hour. • (7) The reaction plate was washed with 1X Wash Buffer for 6 times according to about 400 µL per well. • (8) 100 µL of 1X Streptavidin-HRP was added in to each well to incubate the cells at room temperature for 15 minutes. • (9) The reaction plate was washed with 1X Wash Buffer for 6 times according to about 400 µL per well. • (10) 100 µL of TMB Substrate Solution was added into each well to incubate the cells at room temperature for 10 minutes. • (11) 100 µL of Stop Solution was added into each well. • (12) OD450 was read by EnSight.
The EPO-inducing activities of the compounds were expressed as the concentration for 50% of maximal effect (EC50).

In a further data set the target is T1, PHD2 enzyme (Homo sapiens, UniProt Q9GZT9).
T1 construct: purchased Active motif
T1 sequence (Q9GZT9 whole entry, species assumed): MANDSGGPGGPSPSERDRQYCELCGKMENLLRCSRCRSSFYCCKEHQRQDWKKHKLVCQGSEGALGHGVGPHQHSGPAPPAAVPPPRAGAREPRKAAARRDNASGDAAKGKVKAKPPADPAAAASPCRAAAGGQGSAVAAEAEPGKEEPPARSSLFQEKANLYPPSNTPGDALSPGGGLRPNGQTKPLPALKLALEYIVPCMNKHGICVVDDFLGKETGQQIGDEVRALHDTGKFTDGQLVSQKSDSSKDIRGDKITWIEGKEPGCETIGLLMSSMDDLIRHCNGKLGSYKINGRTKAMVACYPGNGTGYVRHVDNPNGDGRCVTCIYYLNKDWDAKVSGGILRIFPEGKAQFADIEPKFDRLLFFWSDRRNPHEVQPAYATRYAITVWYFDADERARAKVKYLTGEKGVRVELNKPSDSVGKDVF
As to the kind of experiment: Detection of PHD2 enzyme activity inhibition (FITC-HIF1α tracer, mP read-out). In kind it is biochemical. The method, then:
(1) A 1×Assay buffer was prepared. […] 100 nL of 100% DMSO was added into a negative control well and a positive control well respectively. (3) An enzyme solution with 2 times final concentration was prepared with the 1×Assay buffer. (4) 5 µL of the enzyme solution with 2 times final concentration was added into a compound well and the positive control well respectively. (5) 5 µL of the 1 ×Assay buffer was added into the negative control well. (6) The 384-well plate was centrifuged at 1000 rpm for 30 seconds, oscillated and mixed evenly, and then incubated for 15 minutes. (7) A tracer solution with 2 times final concentration was prepared with the 1×Assay buffer, and 5.0 µL of the tracer solution with 2 times final concentration was added to start the reaction.

The next data set has as its system EPO (erythropoietin). The data set is described as follows: Pharmacological evaluation: influence of continuous administration on EPO level. The class given is in vivo, SD rats. The method, then:
This experiment was intended to evaluate an influence of continuous administration of the compounds prepared in Embodiments 12, 13 and 14 on EPO (erythropoietin) in SD rats.
• Line: SD (Sprague Dawley) • Weeks of age and weight: 8 weeks, weight 200 g to 220 g • Sex: male • Animal source: Beijing Vital River Laboratory Animal Technology Co., Ltd.
• Positive drug: Enarodustat • Description: commercialized drugs approved for marketing in Japan • Specification and content: 2 mg JTZ-951(Enarodustat), 140 capsules/box
After a week of adaptive feeding, SD rats were randomly divided into 3 groups, 6 rats in each group, which were namely a blank group, a positive drug group (Enarodustat) and a group of compound in Embodiment 12. An Enarodustat tablet was crushed by a mortar, then quantitatively added with 0.5% methyl cellulose, and magnetically stirred and mixed evenly; and the compound prepared in Embodiment 12 was weighed, then quantitatively added with 0.5% methyl cellulose, and magnetically stirred and mixed evenly. […] The drug was given once a day for 14 consecutive days, and blood was taken to measure an EPO level 4 hours after the drug was given on the 14th day.

Data set [2] in a line: Pharmacokinetic evaluation after intravenous injection or intragastric administration, plasma LC-MS/MS. Particulars: male, Sprague-Dawley, rat, plasma, male SD rats. In kind it is in vivo, SD rats. From the text:
After the compounds were given to SD rats by intravenous injection or intragastric administration, concentrations of related compounds in plasma were detected by an LC-MS/MS method, and pharmacokinetics and absolute bioavailability of the compounds prepared in Embodiments 13 and 14 in the rats were preliminarily evaluated.
2. Line: Sprague Dawley rats, sex: male, weight: 200 g to 250 g
Pharmacokinetic characteristics of rodents after intravenous injection and oral administration of the compounds were tested by a standard scheme. In the experiment, a candidate compound was prepared into a clear solution, and given to the rats by single intravenous injection and intragastric administration. A solvent for intravenous injection was a certain proportion of N,N-dimethylacetamide (DMA) and 10% Solutol HS15 solution, and a solvent for oral administration was a certain proportion of sodium carboxymethyl cellulose (CMC) suspension. 5 minutes, 15 minutes, 30 minutes, 1 hour, 2 hours, 4 hours, 6 hours, 8 hours, 10 hours and 24 hours after drug administration, blood samples of the animals were respectively collected into K2EDTA anticoagulation tubes, which were temporarily stored on ice until centrifugation.

Where [3] appears, read: test concentration from 10 µM, diluted 3 times into 10 concentrations, read-out: IC50.

Where “and” joins values, the source holds several entries; their conditions need not be identical. Equal entries are not always repeated. Where two headings read alike, the source gives them in different places.

As a reminder, the EC50 is the concentration at which the effect is half-maximal. For the compound `Cc1nc(C(=O)NCC(=O)O)c(O)c2ccc(Oc3ccccc3)cc12` [FG-4592, Roxadustat, reference compound], in data set [1] (Hep3B, 24 h), the EC50 worked out at 13800 nM. This counts as double-digit micromolar. One may read the IC50 as the concentration needed to halve the response being measured. Turning to `COc1ccc(Oc2cc(O)c(C(=O)NCC(=O)O)c3ncnn23)cc1` [Compound in Embodiment 6, (5-(p-methoxyphenoxy)-7-hydroxy-[1,2,4]triazolyl[1,5-a]pyridine-8-carbonyl)glycine], the IC50 at PHD2 enzyme (setting [3]) turned out to be 47.6 nM. In the case of `O=C(O)CNC(=O)c1c(O)cc(Oc2cccc(Cl)c2)n2ncnc12` [Compound in Embodiment 3, (5-(3-chlorophenoxy)-7-hydroxy-[1,2,4]triazolyl[1,5-a]pyridine-8-carbonyl)glycine], the IC50 at PHD2 enzyme (setting [3]) was 30.2 nM. On the same count and under the same terms, as for `O=C(O)CNC(=O)c1c(O)cc(Oc2ccc(F)cc2)n2ncnc12` [Compound in Embodiment 8, (5-(4-fluorophenoxy)-7-hydroxy-[1,2,4]triazolyl[1,5-a]pyridine-8-carbonyl)glycine], the figure is 35.4 nM; as for `CCCOc1cc(O)c(C(=O)NCC(=O)O)c2ncnn12` [Compound in Embodiment 9, (5-(propoxy)-7-hydroxy-[1,2,4]triazolyl[1,5-a]pyridine-8-carbonyl)glycine], 34 nM; as for `O=C(O)CNC(=O)c1c(O)cc(Oc2ccccc2)n2ncnc12` [Compound in Embodiment 1], 19.8 nM. Still for that read-out and setting: in the case of `O=C(O)CNC(=O)c1c(O)cc(Oc2cccc(N3CCOCC3)c2)n2ncnc12` [Compound in Embodiment 7, (5-(3-morpholinphenoxy)-7-hydroxy-[1,2,4]triazolyl[1,5-a]pyridine-8-carbonyl)glycine] it was 34.1 nM; in that of `O=C(O)CNC(=O)c1c(O)cc(Oc2ccc(Cl)cc2)n2ncnc12` [Compound in Embodiment 4, (5-(4-chlorophenoxy)-7-hydroxy-[1,2,4]triazolyl[1,5-a]pyridine-8-carbonyl)glycine], 33.3 nM.

`O=C(O)CNC(=O)c1c(O)cc(C=Cc2ccccc2)n2ncnc12` [Compound in Embodiment 11, [(7-hydroxy-5-(styryl)-[1,2,4]triazolo[1,5-a]pyridine-8-carbonyl)amino]acetic acid] registered an EC50 in data set [1] (Hep3B, 24 h) of 1790 nM. For the same compound, the IC50 at PHD2 enzyme (setting [3]) was 31.3 nM. One may read the bioavailability as the share of a dose that reaches the circulation, judged against a reference dose that is usually intravenous. Take `O=C(O)CNC(=O)c1c(O)cc(CCc2ccccc2)n2ncnc12` [Enarodustat, reference compound]: the EC50 in data set [1] was 15100 nM. Moreover, in the data set on EPO (erythropoietin) (after 14 days of administration, in words), the “EPO levels in serum of the rats” value is “increased significantly”. The “EPO level after 14 days of administration” value with EPO (erythropoietin) (individual rats 1-6, 0.3 mg/mL, 10 mL/kg, once a day for 14 consecutive days, blood 4 hours after the drug on the 14th day, 2904.6 pg/mL was an upper limit of measurement) is 452.8 pg/mL and 396.3 pg/mL and 483.2 pg/mL and 404.5 pg/mL and 418.4 pg/mL and 442.3 pg/mL. Besides, the “EPO level after 14 days of administration, Mean” value in the data set on EPO (erythropoietin) (mean of 6 rats, 0.3 mg/mL, 10 mL/kg, once a day for 14 consecutive days, blood 4 hours after the drug on the 14th day, 2904.6 pg/mL was an upper limit of measurement) came out at 432.9 pg/mL. In addition, on PHD2 enzyme, the IC50 turned out to be 21.9 nM. In addition, in data set [2] (route and dose not given, read-out: Concentration integral AUC), the AUC stood at 11400 ng·h/mL. Also, in data set [2] (route and dose not given, read-out: Half-life period T1/2 (converted)), the half-life was 1.12 h. Moreover, the bioavailability in data set [2] (oral, intragastric vs intravenous, read-out: Bioavailability F) was determined as 30.1%.

For the compound `O=C(O)CNC(=O)c1c(O)cc(C#Cc2ccccc2)n2ncnc12` [Compound in Embodiment 10, [(7-hydroxy-5-(phenylethynyl)-[1,2,4]triazolo[1,5-a]pyridine-8-carbonyl)amino]acetic acid], the midpoint of the response in data set [1] (Hep3B, 24 h), the EC50, lay at 6460 nM. Also, on PHD2 enzyme (setting [3]), the IC50 stood at 46.7 nM. Regarding `Cc1ccc(Oc2cc(O)c(C(=O)NCC(=O)O)c3ncnn23)cc1` [Compound in Embodiment 5, (5-(p-tolyloxy)-7-hydroxy-[1,2,4]triazolyl[1,5-a]pyridine-8-carbonyl)glycine], the IC50 on PHD2 enzyme (setting [3]) turned out to be 44.1 nM. With `O=C(O)CNC(=O)c1c(O)cc(Oc2ccccc2Cl)n2ncnc12` [Compound in Embodiment 2, (5-(2-chlorophenoxy)-7-hydroxy-[1,2,4]triazolyl[1,5-a]pyridine-8-carbonyl)glycine], the IC50 at PHD2 enzyme (setting [3]) came to 34.8 nM.

The values above are taken from EP4578855A1, “PROLYL HYDROXYLASE INHIBITOR AND USE THEREOF” (Suzhong Pharmaceutical Group Co., Ltd., priority 2022, dated 2024).
